Experimental findings from ChEMBL document CHEMBL3044885, “Synthesis and fungicidal activity against Rhizoctonia solani of 2-alkyl (Alkylthio)-5-pyrazolyl-1,3,4-oxadiazoles (Thiadiazoles)” (2000) are described below.

Assay [1] has as its system Rhizoctonia solani. As to the kind of experiment: Fungicidal activity against Rhizoctonia solani inoculated on compound pre-treated fifth-leaf stage rice seedlings through foliar spraying assessed as inhibition of rice sheath blight disease at 100 ppm measured 4 days post fungal inoculation.
The subject of assay [2] is Rhizoctonia solani. Nature of the assay: Fungicidal activity against Rhizoctonia solani inoculated on compound pre-treated fifth-leaf stage rice seedlings through foliar spraying assessed as inhibition of rice sheath blight disease at 500 ppm measured 4 days post fungal inoculation.

Broadly, the inhibition is the drop in the measured response relative to a control, in per cent. Regarding `CCc1nn(C)c(-c2nnc(S)s2)c1Cl`, the inhibition at 100 ppm in assay [1] came out at 90%. Besides, the inhibition at 500 ppm in assay [2] was found to be 100%.
For the compound `CCc1nn(C)c(-c2nnc(SC)s2)c1Cl`, the inhibition at 100 ppm in assay [1] was found to be 90%. In assay [2], the inhibition at 500 ppm was found to be 90%.
Turning to `CCSc1nnc(-c2c(Cl)c(CC)nn2C)s1`, the inhibition at 100 ppm in assay [1] amounted to 90%. Moreover, the inhibition at 500 ppm in assay [2] worked out at 90%.
As to `CCCSc1nnc(-c2c(Cl)c(CC)nn2C)s1`, in assay [1], the inhibition at 100 ppm came to 70%. Also, in assay [2], the inhibition at 500 ppm amounted to 70%.
On to `C=CCSc1nnc(-c2c(Cl)c(CC)nn2C)s1`, for which the inhibition at 100 ppm in assay [1] amounted to 25%. For the same compound, the inhibition at 500 ppm in assay [2] stood at 50%.
For `CCCCCSc1nnc(-c2c(Cl)c(CC)nn2C)s1`, in assay [1], the inhibition at 100 ppm is 25%. The inhibition at 500 ppm in assay [2] was found to be 70%.
The matching figures for `CCc1nn(C)c(-c2nnc(S)o2)c1Cl`: 0% and 25%.
The matching figures for `CCc1cc(-c2nnc(S)o2)n(C)n1`: 25% and 50%.
On the same counts, the results for `CCc1nn(C)c(-c2nnc(SC)o2)c1Cl` are 70% and 90%.
For the compound `CCCSc1nnc(-c2c(Cl)c(CC)nn2C)o1`, the inhibition at 100 ppm in assay [1] was found to be 50%. In addition, in assay [2], the inhibition at 500 ppm worked out at 90%.
Consider `CCCCCSc1nnc(-c2c(Cl)c(CC)nn2C)o1`, for which the inhibition at 100 ppm in assay [1] is 25%. Besides, in assay [2], the inhibition at 500 ppm was found to be 70%.
On the same counts, the results for `CCCCCCCSc1nnc(-c2c(Cl)c(CC)nn2C)o1` are 50% and 50%.
The matching figures for `CCCCCCCCSc1nnc(-c2c(Cl)c(CC)nn2C)o1`: 50% and 50%.
The matching figures for `CCOC(=O)C(C)Sc1nnc(-c2c(Cl)c(CC)nn2C)o1` (configuration not stated): 0% and 0%.
`CCc1cc(-c2nnc(SC)o2)n(C)n1`: in assay [1], the inhibition at 100 ppm worked out at 50%. In addition, the inhibition at 500 ppm in assay [2] is 90%.
On the same counts, the results for `CCSc1nnc(-c2cc(CC)nn2C)o1` are 50% and 90%.
For the compound `CCCSc1nnc(-c2cc(CC)nn2C)o1`, the inhibition at 100 ppm in assay [1] is 25%. Besides, in assay [2], the inhibition at 500 ppm came out at 70%.
The matching figures for `CCCCCSc1nnc(-c2cc(CC)nn2C)o1`: 0% and 50%.
As to `CCOC(=O)C(C)Sc1nnc(-c2cc(CC)nn2C)o1` (configuration not stated), the inhibition at 100 ppm in assay [1] came out at 0%. Further, the inhibition at 500 ppm in assay [2] came to 25%.
The matching figures for `CCc1nn(C)c(-c2n[nH]c(=O)o2)c1Cl`: 0% and 0%.
The matching figures for `CCc1nn(C)c(-c2nn(C)c(=O)o2)c1Cl`: 0% and 25%.
The matching figures for `CCc1nn(C)c(-c2nnc(CCl)o2)c1Cl`: 50% and 90%.
With `CCc1nn(C)c(-c2nnc(C(F)(F)F)o2)c1Cl`, the inhibition at 100 ppm in assay [1] amounted to 25%. Further, the inhibition at 500 ppm in assay [2] was found to be 70%.
Regarding `CCc1nnc(-c2c(Cl)c(CC)nn2C)o1`, in assay [1], the inhibition at 100 ppm worked out at 25%. Besides, the inhibition at 500 ppm in assay [2] was determined as 70%.
With `CCCCc1nnc(-c2c(Cl)c(CC)nn2C)o1`, in assay [1], the inhibition at 100 ppm is 25%. In addition, the inhibition at 500 ppm in assay [2] is 70%.
On the same counts, the results for `COC(=O)Nc1nc2ccccc2[nH]1` [CARBENDAZIM] are 100% and 100%.
